Source: patent US9243037B2, “Gramicidin a mutants that function as antibiotics with improved solubility and reduced toxicity” (Trustees of Boston College, priority 2011, dated 2016)
Where two headings read alike, the source gives them in different places. Where a SMILES comes first, the peptide text is derived from it. [ ]: non-standard residue; d: D form. The star is where a group is joined. dLys(Me3) = C[N+](C)(C)CCCC[C@@H](N)C(=O)O; NHCH2CH2OH = OCCN*; For = O=C*

What was measured:
[1] = test system: Bacillus subtilis (ATCC 663)
physchem = type: physicochemical; conditions: for solubility kinetic at 30 min: pH 7, aqueous with cosolvent or surfactant or cyclodextrin
Protocol: Peptide solubility in 10 mM HEPES buffer with 1% DMSO was measured by monitoring tryptophan absorbance. A concentrated (6.0-8.0 mM) peptide stock solution in DMSO was diluted 100 times (5 μL of the stock into 500 jtl of 10 mM HEPES buffer, pH 7.0). The mixture was sonicated for 30 mins and then subject to centrifugation (14,000 rpm, 10 mins) to remove possible precipitate. The supernatant (400 μL) was transferred to a quartz cuvette and the peptide concentration was determined by tryptophan absorbance at 280 nm (ε=22760 M−1 cm-1). The UV/Vis spectra of the supernatant can be seen in FIG. 1 and FIG. 5.

[2] = test system: human red blood cells (hRBCs); assay: K+ leakage from hRBCs (flame atomic emission); type: cell-based
Protocol: The rest of supernatant (1.2 mL) from each sample prepared as described in the hemoglobin leakage assay was transferred into a new sterile eppendorf tube and subject to the K+ concentration measurement using a flame-atomic emission spectrometer (λem=766.5 nm, Perkin Elmer Atomic absorption Spectrometer 3100, acetylene/air flame). Three readings were taken for each sample and averaged as final results. The fraction of K+ leakage from hRBCs was calculated as percentage K+ leaked=100·(I776.5,peptide−I776.5,DMSO)/(I776.5,complete lysis−I776.5,DMSO).

[3] = test system: Streptococcus pyogenes (ATCC 19615)
[4] = test system: Staphylococcus aureus (ATCC 6538)
[5] = test system: human red blood cells (hRBCs); assay: Haemoglobin release from human red blood cells; type: cell-based
Protocol: Fresh human red blood cells (hRBCs) were centrifuged at 3500 rpm and washed with PBS buffer until the supernatant was clear. The hRBCs were then resuspended and diluted to a final concentration of 1% (v/v) in PBS and used immediately. 15 μL of serial dilution (2-fold) of peptides in DMSO or DMSO alone as a negative control were added to 1.5 mL of hRBCs in PBS. The resulting mixture was gently shaken to mix well and incubated at 37° C. for 1 hr, followed by centrifugation at 3500 rpm for 10 min using tabletop centrifuge. Aliquots (50 μL) of the supernatant (in triplicates) were transferred into a sterile 96-well plate containing 50 μL of H2O in each well. Release of hemoglobin was monitored at 415 nm using a microtiter plate reader. Percentage hemolysis was calculated using percentage hemolysis=100·(A415, peptide-A415,DMSO)/(A415, complete hemolysis-A415, DMSO), where complete hemolysis is achieved by mixing hRBCs with 1% TritonX-100.

[6] = Peptide binding onto membranes (Trp fluorescence); conditions: neutral POPC vesicles; in words
[7] = Peptide binding onto membranes (Trp fluorescence); conditions: negatively charged POPC/POPG vesicles; in words
[8] = Trp absorbance @ 280 nm; 10 mM PBS, pH 7.0, 1% DMSO; values taken from ref; cited from earlier work

| Compound | Minimum Inhibition Concentration B. Subtilius ([1]; ATCC 663) [µM] | solubility kinetic at 30 min (physchem) [µM] | KC50 [2] | Toxicity KC50 [2] [µM] | Minimum Inhibition Concentration S. Pyogenesis ([3]; ATCC 19615) [µM] | Minimum Inhibition Concentration S. Aureus ([4]; ATCC 6538) [µM] | HC50 [5] | haemoglobin leakage from hRBCs [5] | Toxicity HC50 ([5]; red cells of human) [µM] | further results |
| --- | --- | --- | --- | --- | --- | --- | --- | --- | --- | --- |
| CC(C)C[C@@H](NC(=O)[C@H](C)NC(=O)CNC(=O)[C@@H](NC=O)C(C)C)C(=O)N[C@@H](C)C(=O)N[C@@H](C(=O)N[C@H](C(=O)N[C@@H](C(=O)N[C@@H](Cc1c[nH]c2ccccc12)C(=O)N[C@H](CCCC[N+](C)(C)C)C(=O)N[C@@H](Cc1c[nH]c2ccccc12)C(=O)N[C@H](CC(C)C)C(=O)N[C@@H](Cc1c[nH]c2ccccc12)C(=O)N[C@H](CCCC[N+](C)(C)C)C(=O)N[C@@H](Cc1c[nH]c2ccccc12)C(=O)NCCO)C(C)C)C(C)C)C(C)C [10, 14M] (For-VGA[dL]A[dV]V[dV]W[dLys(Me3)]W[dL]W[dLys(Me3)]W-NHCH2CH2OH) | 2.5 | 30 | 20 | 20 | 1.25 | > 10 | >24 | [c] HC50 is the peptide concentration required to cause 50% of haemoglobin leakage from human red blood cells compared to the lysis of same amount cells by 1% TritonX-100. No haemoglogin leakage was observed in the cases of 10, 14M, 10, 12M or 10, 12, 14M at the concentration range tested. | >24 | HC50 printed in the S. Aureus MIC cell ([4]; ATCC 6538): 1.25 µM |
| CC(C)C[C@@H](NC(=O)[C@H](C)NC(=O)CNC(=O)[C@@H](NC=O)C(C)C)C(=O)N[C@@H](C)C(=O)N[C@@H](C(=O)N[C@H](C(=O)N[C@@H](C(=O)N[C@@H](Cc1c[nH]c2ccccc12)C(=O)N[C@H](CC(C)C)C(=O)N[C@@H](Cc1c[nH]c2ccccc12)C(=O)N[C@H](CC(C)C)C(=O)N[C@@H](Cc1c[nH]c2ccccc12)C(=O)N[C@H](CCCC[N+](C)(C)C)C(=O)N[C@@H](Cc1c[nH]c2ccccc12)C(=O)NCCO)C(C)C)C(C)C)C(C)C [14M] (For-VGA[dL]A[dV]V[dV]W[dL]W[dL]W[dLys(Me3)]W-NHCH2CH2OH) | 2.5 | 3.6 | 0.015 | 0.015 | 0.078 | 1.25 to 2.5 | 24 |  | 24 |  |
| CC(C)C[C@@H](NC(=O)[C@H](C)NC(=O)CNC(=O)[C@@H](NC=O)C(C)C)C(=O)N[C@@H](C)C(=O)N[C@@H](C(=O)N[C@H](C(=O)N[C@@H](C(=O)N[C@@H](Cc1c[nH]c2ccccc12)C(=O)N[C@H](CCCC[N+](C)(C)C)C(=O)N[C@@H](Cc1c[nH]c2ccccc12)C(=O)N[C@H](CCCC[N+](C)(C)C)C(=O)N[C@@H](Cc1c[nH]c2ccccc12)C(=O)N[C@H](CCCC[N+](C)(C)C)C(=O)N[C@@H](Cc1c[nH]c2ccccc12)C(=O)NCCO)C(C)C)C(C)C)C(C)C [10, 12, 14M] (For-VGA[dL]A[dV]V[dV]W[dLys(Me3)]W[dLys(Me3)]W[dLys(Me3)]W-NHCH2CH2OH) |  | 55 | >95 | >95 |  |  | >95 | [c] HC50 is the peptide concentration required to cause 50% of haemoglobin leakage from human red blood cells compared to the lysis of same amount cells by 1% TritonX-100. No haemoglogin leakage was observed in the cases of 10, 14M, 10, 12M or 10, 12, 14M at the concentration range tested. | >95 |  |
| CC(C)C[C@@H](NC(=O)[C@H](C)NC(=O)CNC(=O)[C@@H](NC=O)C(C)C)C(=O)N[C@@H](C)C(=O)N[C@@H](C(=O)N[C@H](C(=O)N[C@@H](C(=O)N[C@@H](Cc1c[nH]c2ccccc12)C(=O)N[C@H](CC(C)C)C(=O)N[C@@H](Cc1c[nH]c2ccccc12)C(=O)N[C@H](CC(C)C)C(=O)N[C@@H](Cc1c[nH]c2ccccc12)C(=O)N[C@H](CCCCN)C(=O)N[C@@H](Cc1c[nH]c2ccccc12)C(=O)NCCO)C(C)C)C(C)C)C(C)C (racemic) [gA-2, formyl-V-G-A-dL-A-dV-V-dV-W-dL-W-dL-W-dK-W-NHCH2CH2OH] |  |  |  |  |  |  |  |  |  | apparent dissociation constant (Kd) / binding [6]: apparent Kd values close to that of gA-WT; MICs B. Subtilius ([1]; ATCC 663): 5 µM; MIC relative to wild-type Gramicidin A ([1]; B. subtilis): equivalent to that of wild-type Gramicidin A; water solubility, fold higher than wild-type Gramicidin A (physchem): ~200 fold; KC50 (50% K+ ion leakage relative to 1% TritonX-100) [2]: 0.01 µM; peptide concentration for 50% K+ ion leakage, fold greater than wild-type Gramicidin A [2]: ~100 fold; MICs S. Pyogenes ([3]; ATCC 19615): 0.16 µM; MIC relative to wild-type Gramicidin A ([3]; S. Pyogenes): equivalent to that of wild-type Gramicidin A; apparent dissociation constant (Kd) / binding [7]: apparent Kd values close to that of gA-WT; Sat. Conc, Lys series [8]: 11 µM; MICs S. Aureus ([4]; ATCC 6538): 2.5 µM; MIC relative to wild-type Gramicidin A ([4]; S. Aureus): equivalent to that of wild-type Gramicidin A; HC50 (50% haemoglobin leakage relative to 1% TritonX-100) ([5]; red cells of human): 5~10 μM |
| CC(C)C[C@@H](NC(=O)[C@H](C)NC(=O)CNC(=O)[C@@H](NC=O)C(C)C)C(=O)N[C@@H](C)C(=O)N[C@@H](C(=O)N[C@H](C(=O)N[C@@H](C(=O)N[C@@H](Cc1c[nH]c2ccccc12)C(=O)N[C@H](CCCC[N+](C)(C)C)C(=O)N[C@@H](Cc1c[nH]c2ccccc12)C(=O)N[C@H](CCCC[N+](C)(C)C)C(=O)N[C@@H](Cc1c[nH]c2ccccc12)C(=O)N[C@H](CC(C)C)C(=O)N[C@@H](Cc1c[nH]c2ccccc12)C(=O)NCCO)C(C)C)C(C)C)C(C)C [10, 12M] (For-VGA[dL]A[dV]V[dV]W[dLys(Me3)]W[dLys(Me3)]W[dL]W-NHCH2CH2OH) |  | 27 | >10 | >10 | > 10 |  | >10 | [c] HC50 is the peptide concentration required to cause 50% of haemoglobin leakage from human red blood cells compared to the lysis of same amount cells by 1% TritonX-100. No haemoglogin leakage was observed in the cases of 10, 14M, 10, 12M or 10, 12, 14M at the concentration range tested. | >10 | EC50 ([3]; ATCC 19615): 1.25 µM |
| CC(C)C[C@@H](NC(=O)[C@H](C)NC(=O)CNC(=O)[C@@H](NC=O)C(C)C)C(=O)N[C@@H](C)C(=O)N[C@@H](C(=O)N[C@H](C(=O)N[C@@H](C(=O)N[C@@H](Cc1c[nH]c2ccccc12)C(=O)N[C@H](CC(C)C)C(=O)N[C@@H](Cc1c[nH]c2ccccc12)C(=O)N[C@H](CCCC[N+](C)(C)C)C(=O)N[C@@H](Cc1c[nH]c2ccccc12)C(=O)N[C@H](CCCC[N+](C)(C)C)C(=O)N[C@@H](Cc1c[nH]c2ccccc12)C(=O)NCCO)C(C)C)C(C)C)C(C)C [1214MeK] (For-VGA[dL]A[dV]V[dV]W[dL]W[dLys(Me3)]W[dLys(Me3)]W-NHCH2CH2OH) |  |  |  |  |  |  |  |  |  | KC50 ([2]; Table 8): >10 |
| CC(C)C[C@@H](NC(=O)[C@H](C)NC(=O)CNC(=O)[C@@H](NC=O)C(C)C)C(=O)N[C@@H](C)C(=O)N[C@@H](C(=O)N[C@H](C(=O)N[C@@H](C(=O)N[C@@H](Cc1c[nH]c2ccccc12)C(=O)N[C@H](CC(C)C)C(=O)N[C@@H](Cc1c[nH]c2ccccc12)C(=O)N[C@H](CCCC[N+](C)(C)C)C(=O)N[C@@H](Cc1c[nH]c2ccccc12)C(=O)N[C@H](CC(C)C)C(=O)N[C@@H](Cc1c[nH]c2ccccc12)C(=O)NCCO)C(C)C)C(C)C)C(C)C [12MeK] (For-VGA[dL]A[dV]V[dV]W[dL]W[dLys(Me3)]W[dL]W-NHCH2CH2OH) |  |  |  |  |  |  |  |  |  | KC50 ([2]; Table 8): 0.2; HC50 ([5]; Table 8): >10 |
| CC(C)C[C@@H](NC(=O)[C@H](C)NC(=O)CNC(=O)[C@@H](NC=O)C(C)C)C(=O)N[C@@H](C)C(=O)N[C@@H](C(=O)N[C@H](C(=O)N[C@@H](C(=O)N[C@@H](Cc1c[nH]c2ccccc12)C(=O)N[C@H](CCCC[N+](C)(C)C)C(=O)N[C@@H](Cc1c[nH]c2ccccc12)C(=O)N[C@H](CC(C)C)C(=O)N[C@@H](Cc1c[nH]c2ccccc12)C(=O)N[C@H](CC(C)C)C(=O)N[C@@H](Cc1c[nH]c2ccccc12)C(=O)NCCO)C(C)C)C(C)C)C(C)C [10M] (For-VGA[dL]A[dV]V[dV]W[dLys(Me3)]W[dL]W[dL]W-NHCH2CH2OH) | 2.5 | 4.3 | 0.04 | 0.04 | 0.15 | 2.5 | 19 |  | 19 |  |
